Square brackets hold non-standard residues; d marks the D form. Ends that are not written are not given here.

The assay concerns mouse ADAMTS7. The assay is described as follows: TMT10 TAILS N-terminomics, SMC1 experiment (Ad-mADAMTS7 WT vs EQ vs Luc, technical replicates, trypsin digest). Conditions: TAILS neo-N-terminal peptide abundance; log fold change, Ad-mADAMTS7 WT over EQ. Type of assay: cell-based. The source says: ADAMTS7 Expression, Cell Culture and Preparation of the Secreted Proteins—Full-length mouse Adamts7 1-1857 (Uniprot Q68SA9, WT or E373Q catalytic mutant) with a carboxyl terminal 3xFLAG tag was used to generate custom adenoviruses as previously described. Adeno-CMV-Luciferase (Ad-Luc) from Vector Biolabs was used as a negative control. Human Coronary Artery Smooth Muscle Cells (HCA-SMC) were obtained from Lonza and expanded in Lonza SmGM-2 media in 15 cm tissue culture plates. Twenty-four hours before media collection, near confluent plates were transduced with 50 MOI adenovirus and switched to Lonza Basal SM media with volumes of 20 ml per 15 cm plate. Expression of the Flag tagged ADAMTS7 was confirmed from the media using western blot and detected using the anti-Flag M2-HRP antibody (Sigma, A8592). Collected media was processed by adding protease inhibitors (1 mM EDTA and 1 mM PMSF) and clarified by 500 g×5 min spin at 4 C to pellet cell debris. Cell media supernatants were then passed through a 0.22 um filter and kept chilled. Processed media was then concentrated 50-100× using 3 kDa Centricon Plus-70 filter unit, spun at 3,500 g×60 min at 4 C. Approximately 10% of the processed, concentrated media was set aside for total secretome proteolytic analysis. The remaining 90% of the processed, concentrated media was buffer exchanged into 50 mM HEPES pH 8.0, 150 mM NaCl (2×50 ml) using the 3 kDa Centricon Plus-70 filter unit and concentrated to >2 mg/ml to serve as input for the TAILS experiment. Secretome and TAILS input samples were stored at −80° C.
For the first experiment, referred to as SMC1, 120 ml of media from 6×15 cm dishes was pooled from each condition (Luc, WT, EQ) and processed to produce three separate inputs for the TAILS experiment. Luc, WT and EQ inputs from the SMC1 experiment were each divided into triplicate 400 ug samples to generate technical replicate TAILS data. For the second experiment, referred to as SMC2, media was processed separately in triplicate for each condition (Luc1, Luc2, Luc3, WT1, WT2, WT3, EQ1, EQ2, EQ3) using 60 ml of media from 3×15 cm dishes for each process replicate. Inputs from the SMC2 experiment used process replicates of 300 ug each to generate TAILS data. The third experiment used input from cultured Human umbilical vein endothelial cells (HUVEC) from Lifeline Cell Technology grown in VascuLife Media and transduced in Lifeline Basal EC (+bFGF2 10 ng/ml). The HUVEC experiment used the same strategy as the SMC2 experiment, with 40 ml of media from 2×15 cm dishes for each process replicate and used 200 ug each to generate TAILS data. Inputs for process replicate experiments were restricted to the lowest concentration from the 9 parallel samples for SMC2 or HUVEC.
TMT10 isotopic labeling and negative selection of non-labeled peptides-Sample preparation was performed based on the TAILS protocol from the Overall lab with some modifications. From a single experiment, nine parallel protein samples in 50 mM HEPES pH 8.0, 150 mM NaCl were separately denatured with guanidinium chloride (Sigma, G4505) to reach a final concentration of 2.5M guanidinium chloride and 250 mM HEPES and incubated at 65° C. for 15 min. Reduction was achieved through addition of tris(2-carboxylethyl) phosphine (TCEP) at a final concentration of […] and incubated at 65° C. for 45 min. Alkylation reaction was performed with addition of iodoacetamide (IAA, Sigma, A3221) to a final concentration of 10 mM IAA for 15 min at room temperature in the dark. Following denaturation, reduction and alkylation steps, ten percent of each of the nine parallel protein samples was removed and combined to serve as a pooled reference. Isobaric tags were added to free amine groups using the TMT10plex Isobaric Mass Tagging Kit (ThermoFisher, 90113) with TMT channels randomly assigned to the nine samples and TMT 131 assigned to the pooled reference. […]
For “ACTB_21 (FAGDDAPR; listed as Homo sapiens)”, the logFC.mWT.over.mEQ came to 1.17.

The substance “ACTB_105 (LTEAPLNPKANR; listed as Homo sapiens)” yielded a logFC.mWT.over.mEQ of 2.00.

“ADAM9_69 (VIQAEGKEHIIHLER; listed as Homo sapiens)” gave a logFC.mWT.over.mEQ of 1.55.

For “AEBP1_37 (FLEGFLSELEPEPR; listed as Homo sapiens)”, the logFC.mWT.over.mEQ is on record as 3.41.

The substance “APLP2_579 (ISETPVDVR; listed as Homo sapiens)” registered a logFC.mWT.over.mEQ of 2.00.

In the case of “CCDC80_66 (LEEPNLQPLQR; listed as Homo sapiens)”, the logFC.mWT.over.mEQ amounted to 3.70.

On to “ECM1_134 (FGDQSHPEPESWNAAQHCQQDR; listed as Homo sapiens)”, for which the logFC.mWT.over.mEQ was 2.74.

Substance “EFEMP1_124 (AVAGPEMQTGR; listed as Homo sapiens)” returned a logFC.mWT.over.mEQ of 4.43.

As for “EFEMP1_125 (VAGPEMQTGR; listed as Homo sapiens)”, the logFC.mWT.over.mEQ stood at 2.25.

The substance “EFHD2_67 (QGIGEPQSPSR; listed as Homo sapiens)” displayed a logFC.mWT.over.mEQ of 0.90.

Consider “EHBP1L1_298 (TAPTPAPR; listed as Homo sapiens)”, for which the logFC.mWT.over.mEQ turned out to be 1.23.

The substance “FBLN2_259 (ALGPPAPVQAKAR; listed as Homo sapiens)” displayed a logFC.mWT.over.mEQ of 1.29.

“FBLN2_260 (LGPPAPVQAKAR; listed as Homo sapiens)” yielded a logFC.mWT.over.mEQ of 4.21.

As for “FBN1_29 (LEAGNVKETR; listed as Homo sapiens)”, the logFC.mWT.over.mEQ came to 4.49.

In the case of “FBN1_53 (LKGPNVCGSR; listed as Homo sapiens)”, the logFC.mWT.over.mEQ was determined as 4.93.

In the case of “FLNA_612 (SVEGPSQAKIECDDKGDGSCDVR; listed as Homo sapiens)”, the logFC.mWT.over.mEQ was found to be 1.69.

“FLNA_695 (FTVDAKHGGKAPLR; listed as Homo sapiens)” showed a logFC.mWT.over.mEQ of 5.04.

For “FLNA_1285 (LTQTGGPHVKAR; listed as Homo sapiens)”, the logFC.mWT.over.mEQ turned out to be 5.06.

In the case of “FN1_36 (MVQPQSPVAVSQSKPGCYDNGKHYQINQQWER; listed as Homo sapiens)”, the logFC.mWT.over.mEQ was determined as 3.34.

In turn, “FN1_40 (QSPVAVSQSKPGCYDNGKHYQINQQWER; listed as Homo sapiens)” came in with a logFC.mWT.over.mEQ of 4.27.

As for “FN1_45 (VSQSKPGCYDNGKHYQINQQWER; listed as Homo sapiens)”, the logFC.mWT.over.mEQ is on record as 3.20.

“FN1_47 ([code q]SKPGCYD[code n]GKHYQINQQWER; not fully specified; listed as Homo sapiens)”: the logFC.mWT.over.mEQ is given as 2.89.

As to “FN1_281 (SGSGPFTDVR; listed as Homo sapiens)”, the logFC.mWT.over.mEQ is 1.88.

In turn, “FN1_282 (GSGPFTDVR; listed as Homo sapiens)” showed a logFC.mWT.over.mEQ of 3.89.

Substance “FN1_886 (NQESTPVVIQQETTGTPR; listed as Homo sapiens)” displayed a logFC.mWT.over.mEQ of 1.21.

For the substance “FN1_1143 (LTPGVEYVYTIQVLR; listed as Homo sapiens)”, the logFC.mWT.over.mEQ is recorded as 0.86.

Consider “FN1_1656 (SSSPVTGYR; listed as Homo sapiens)”, for which the logFC.mWT.over.mEQ was found to be 1.52.

The substance “FN1_1731 (FTDVDVDSIKIAWESPQGQVSR; listed as Homo sapiens)” had a logFC.mWT.over.mEQ of 2.70.

As to “FN1_2143 (FEEHGFR; listed as Homo sapiens)”, the logFC.mWT.over.mEQ was 1.24.

Consider “FN1_2217 (FQDTSEYIISCHPVGTDEEPLQFR; listed as Homo sapiens)”, for which the logFC.mWT.over.mEQ is reported as 2.27.

Regarding “GALNT2_31 (LAGGAGGGAGR; listed as Homo sapiens)”, the logFC.mWT.over.mEQ is listed as 1.19.

For the substance “GSN_35 (SQAGAPQGR; listed as Homo sapiens)”, the logFC.mWT.over.mEQ came out at 4.37.

Regarding “GSN_413 (HIANVER; listed as Homo sapiens)”, the logFC.mWT.over.mEQ was found to be 2.19.

The values are drawn from patent US20240368668A1, “SUBSTRATES AND BIOMARKERS OF ADAMTS7” (The Broad Institute, Inc., priority 2021, published 2024).
